Experimental data: article PMC6999911, “New 2-Ethylthio-4-methylaminoquinazoline derivatives inhibiting two subunits of cytochrome bc1 in Mycobacterium tuberculosis” (PLoS Pathogens, 2020)

Experiments:
Type in all cases: cell-based, Mycobacterium tuberculosis
QuinR mutant strains = test system: QuinR mutant strains
[1] = test system: QuinR-M1 (QcrA Leu356Val)
[2] = test system: QuinR-M2 (QcrB Trp312Gly)
[3] = test system: QuinR-M3 (QcrB Gly175Ser)
H37Rv-Rv1777(R145S) = test system: H37Rv-Rv1777(R145S)
M. tb H37Rv ΔcydKO A317V = test system: M. tb H37Rv ΔcydKO A317V
[4] = test system: complemented mutant (ΔcydAB)

SMILES | ATP depletion in QuinR mutants (QuinR mutant strains) | fold-change MIC compared to H37Rv (QuinR-M1) [1] [fold-change] | fold-change MIC compared to H37Rv (QuinR-M2) [2] [fold-change] | fold-change MIC compared to H37Rv (QuinR-M3) [3] [fold-change] | fold change in the MIC, H37Rv-Rv1777(R145S) (H37Rv-Rv1777(R145S)) [fold] | basal respiration after compound addition (M. tb H37Rv ΔcydKO A317V) | static or cidal activity by CFU enumeration [4]
COc1nc2ccc(Br)cc2cc1[C@@H](c1ccccc1)[C@@](O)(CCN(C)C)c1cccc2ccccc12 [BDQ] | Significant ATP depletion | – | – | – | – | – | –
CCSc1nc(NC)c2ccccc2n1 [Compound 11626141] | – | 59 | 1489 | 92 | ≤ 3 | – | –
CCNc1nc(SCC)nc2ccccc12 [Compound 11626142] | – | 39 | 1111 | 34 | ≤ 3 | – | –
CCSc1nc(NC)c2cccc(F)c2n1 [Compound 11626252] | low-level ATP depletion | 25 | 1470 | 61 | ≤ 3 | did not cause a deviation in basal respiration | bacteriostatic effect is restored
CCSc1nc(NC)c2ccc(F)c(F)c2n1 [Compound 11726148] | – | 100 | 224 | 142 | – | – | –
CCc1nc2ccc(Cl)cn2c1C(=O)NCc1ccc(N2CCC(c3ccc(OC(F)(F)F)cc3)CC2)cc1 [Compound Q203, Telacebec, reference compound] | Significant ATP depletion | 669 | 742 | 191 | – | – | –
Cc1c(OCC(F)(F)F)ccnc1CSc1nc2ccccc2[nH]1 [LPZs, lansoprazole sulfide, reference compound] | – | > 71 | > 71 | 1 | – | – | –
